Experimental data: patent publication US20250034182A1, “PHOSPHOLIPID COMPOUNDS AND METHODS OF MAKING AND USING THE SAME” (priority 2021, published 2025)

Experiments:
Assay type in all cases: cell-based
[1] = tested on: Respiratory syncytial virus recombinant with luciferase (RSV-Luc5) in HEp-2 cells; assay: HEp-2 RSV-Luc5 384-well assay (EC50 RSVFLUC Hep2-384 v2, Example V); details: human respiratory syncytial virus, HEp-2, 72 h, read-out: RSV Hep-2 FLuc EC50 (v2) (nM) (per Ex. V)
Summary of the method: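 HEp-2 cells (4,000/well) infected with RSV-Luc5 at MOI 0.5 in DMEM/10% FBS with compound, 10-point 1:3 dilutions, 3 days at 37 °C. Replication read by One-Glo luminescence, normalized to remdesivir (0%) and DMSO (100%). EC50 from non-linear regression as concentration giving 50% reduction.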

[2] = RSV NHBE CC50 384 V2 (per Ex. U); details: human
[3] = RSV HEP2-CC50-384-V2 (per Ex. V); details: human
[4] = tested on: Human Rhinovirus 16 (HRV16) in H1-HeLa cells; assay: H1-HeLa HRV-CTG EC50, HRV16 (Example Z); details: Rhinovirus A, HRV16, 96 h, MOI 0.25, 4 days, Celltiter-Glo, read-out: HRV 16 HELA EC50 (nM) (per Ex. Z)
Text: (§1) H1-Hela cell line (ATCC, Manassas, VA, Cat #CRL-1958) was maintained in Dulbecco's […] (DMEM) (Corning, New York, NY, Cat #15-018CM) supplemented with 10% fetal bovine serum (FBS) (Hyclone, Logan, UT, Cat #SH30071-03), and 1× Penicillin-Streptomycin-L-Glutamine (Coming, New York, NY, Cat #30-009-C1). Cells were passaged 2 times per week to maintain sub-confluent densities and were used for experiments at passage 5-30. The Human Rhinovirus 1B (HRV1B) (ATCC, Manassas, VA, Cat #VR-1645), Human Rhinovirus 14 (HRV14) (ATCC, Manassas, VA, Cat #VR-284), and Human Rhinovirus 16 (HRV16) (ATCC, Manassas, VA, Cat #BR-283) was obtained through ATCC. Viral infection was monitored by determining viability of H1-HeLa cells as described below.
(§2) Test molecules are prepared in 100% DMSO in 384-well polypropylene plates (Greiner, Monroe, NC, Cat #784201) with 8 compounds per plate in grouped replicates of 4 at 10 serially diluted concentrations (1:3). The serially diluted compounds were transferred to low dead volume Echo plates (Labcyte, Sunnyvale, CA, Cat #LP-0200).
(§3) The test compounds were spotted to 384-well assay plates (Greiner, Monroe, NC, Cat #781091) at 200 nL per well using an Echo acoustic dispenser (Labcyte, Sunnyvale, CA). H1-HeLa cells were harvested and suspended in DMEM (supplemented with 2% FBS and 1× Penicillin-Streptomycin-L-Glutamine) and seeded to the pre-spotted assay plates at 5,000 cells per well in 30 μL. HRV1B, HRV14, and HRV16 was diluted in DMEM (supplemented with 2% FBS and 1× Penicillin-Streptomycin-L-Glutamine) at 97.1 million Infectious Units (IU) per mL, 151 million IU per mL and 221 million IU per mL respectively. 10 μL of virus per well was added to the assay plates containing cells and compounds, for an MOI of 0.5, 1.0, and 0.25 respectively. The assay plates were incubated for 4 days at 37° C. and 5% CO2. At the end of incubation, Celltiter-Glo (Promega, Madison, WI, Cat #G7573) was prepared. The assay plates and Celltiter-Glo reagent were equilibrated to room temperature for at least 15 minutes. 40 μL per well of Celltiter-Glo reagent was added and the plates were incubated at room temperature for 15 minutes before reading the luminescence signal on an EnVision multimode plate reader (Perkin Elmer, Waltham, MA). Rupintrivir was used as positive control and DMSO was used as negative control. Values were normalized to the positive and negative controls (as 0% and 100% replication, respectively) and data was fitted using non-linear regression analysis by Gilead's dose response tool. The EC50 value for each compound was defined as the concentration reducing viral replication by 50%.

[5] = tested on: Human Rhinovirus 14 (HRV14) in H1-HeLa cells; assay: H1-HeLa HRV-CTG EC50, HRV14 (Example Z); details: Rhinovirus B, HRV14, 96 h, MOI 1.0, 4 days, Celltiter-Glo, read-out: HRV14 HELA EC50 (nM) (per Ex. Z)
Text: as §1, §2, §3

CCCCCCCCCCCCCCCCCCOC[C@H](COP(=O)(O)OC[C@@]1(C#N)O[C@@H](c2ccc3c(N)ncnn23)[C@H](O)[C@@H]1O)OCc1ccc(C#N)c(Cl)c1 [Compound 7, ((2R,3S,4R,5S)-5-(4-aminopyrrolo[2,1-f][1,2,4]triazin-7-yl)-2-cyano-3,4-dihydroxytetrahydrofuran-2-yl)methyl ((R)-2-((3-chloro-4-cyanobenzyl)oxy)-3-(octadecyloxy)propyl) hydrogen phosphate] showed an EC50 [1] of 284 nM, a CC50 at 3 days [2] of 5960 nM and a CC50 at 3 days [3] of over 49900 nM. It also gave an EC50 [4] of 40 nM and an EC50 [5] of 50 nM.

CCCCCCCCCCCCCCCCCOC[C@H](COP(=O)(O)OC[C@@]1(C#N)O[C@@H](c2ccc3c(N)ncnn23)[C@H](O)[C@@H]1O)OCc1cc(F)cc(C#N)c1 [Compound 53, ((2R,3S,4R,5S)-5-(4-aminopyrrolo[2,1-f][1,2,4]triazin-7-yl)-2-cyano-3,4-dihydroxytetrahydrofuran-2-yl)methyl ((R)-2-((3-cyano-5-fluorobenzyl)oxy)-3-(heptadecyloxy)propyl) hydrogen phosphate] showed an EC50 [1] of 200 nM, a CC50 at 3 days [2] of 2820 nM and a CC50 at 3 days [3] of 32100 nM. For the same compound, the EC50 [4] was 35 nM and the EC50 [5] was 35 nM.

CCCCCCCCCCCCCCCCCCCC[C@H](COP(=O)(O)OC[C@@]1(C#N)O[C@@H](c2ccc3c(N)ncnn23)[C@H](O)[C@@H]1O)Oc1cccc(C#N)c1 [Compound 51, ((2R,3S,4R,5S)-5-(4-aminopyrrolo[2,1-f][1,2,4]triazin-7-yl)-2-cyano-3,4-dihydroxytetrahydrofuran-2-yl)methyl ((R)-2-(3-cyanophenoxy)docosyl) hydrogen phosphate] showed an EC50 [1] of 436 nM, a CC50 at 3 days [2] of 8330 nM and a CC50 at 3 days [3] of over 46200 nM. It also gave an EC50 [4] of 34 nM and an EC50 [5] of 49 nM.

Work on CCCCCCCCCCCCCCCCCCC[C@H](COP(=O)(O)OC[C@@]1(C#N)O[C@@H](c2ccc3c(N)ncnn23)[C@H](O)[C@@H]1O)OCc1ccc(-n2cncn2)c(C#N)c1 [Compound 30, ((2R,3S,4R)-5-(4-aminopyrrolo[2,1-f][1,2,4]triazin-7-yl)-2-cyano-3,4-dihydroxytetrahydrofuran-2-yl)methyl ((R)-2-((3-cyano-4-(1H-1,2,4-triazol-1-yl)benzyl)oxy)henicosyl) hydrogen phosphate] yielded an EC50 [1] of 115 nM, a CC50 at 3 days [2] of 1720 nM and a CC50 at 3 days [3] of 33100 nM. It also gave an EC50 [4] of 11 nM and an EC50 [5] of 12 nM.

CCCCCCCCCCCCCCCCCCOC[C@H](COP(=O)(O)OC[C@@]1(C#N)O[C@@H](c2ccc3c(N)ncnn23)[C@H](O)[C@@H]1O)OCc1ccc(C#N)cc1OC [Compound 73, ((2R,3S,4R)-5-(4-aminopyrrolo[2,1-f][1,2,4]triazin-7-yl)-2-cyano-3,4-dihydroxytetrahydrofuran-2-yl)methyl ((R)-2-((4-cyano-2-methoxybenzyl)oxy)-3-(octadecyloxy)propyl) hydrogen phosphate] gave an EC50 [1] of 104 nM, a CC50 at 3 days [2] of 3820 nM and a CC50 at 3 days [3] of over 47000 nM. The EC50 [4] was 29 nM and the EC50 [5] was 26 nM.

CCCCCCCCCCCCCCCCCCC[C@H](COP(=O)(O)OC[C@@]1(C#N)O[C@@H](c2ccc3c(N)ncnn23)[C@H](O)[C@@H]1O)OCc1ccc(C#N)c(OC(C)C)c1 [Compound 28, ((2R,3S,4R,5S)-5-(4-aminopyrrolo[2,1-f][1,2,4]triazin-7-yl)-2-cyano-3,4-dihydroxytetrahydrofuran-2-yl)methyl ((R)-2-((4-cyano-3-isopropoxybenzyl)oxy)henicosyl) hydrogen phosphate] showed an EC50 [1] of 353 nM, a CC50 at 3 days [2] of 7560 nM and a CC50 at 3 days [3] of 30600 nM. It also gave an EC50 [4] of 51 nM and an EC50 [5] of 47 nM.

For CCCCCCCCCCCCCCCCC[C@H](COP(=O)(O)OC[C@@]1(C#N)O[C@@H](c2ccc3c(N)ncnn23)[C@H](O)[C@@H]1O)OCc1cc(F)cc(C#N)c1 [Compound 36, ((2R,3S,4R,5S)-5-(4-aminopyrrolo[2,1-f][1,2,4]triazin-7-yl)-2-cyano-3,4-dihydroxytetrahydrofuran-2-yl)methyl ((R)-2-((3-cyano-5-fluorobenzyl)oxy)nonadecyl) hydrogen phosphate], the EC50 [1] was 353 nM, the CC50 at 3 days [2] was 2740 nM and the CC50 at 3 days [3] was over 50000 nM. The EC50 [4] was 112 nM and the EC50 [5] was 113 nM.

Compound CCCCCCCCCCCCCCCCCCOC[C@@H](COP(=O)(O)OC[C@@]1(C#N)O[C@@H](c2ccc3c(N)ncnn23)[C@H](O)[C@@H]1O)Oc1ccc(C#N)nc1 [Compound 72, ((2R,3S,4R,5S)-5-(4-aminopyrrolo[2,1-f][1,2,4]triazin-7-yl)-2-cyano-3,4-dihydroxytetrahydrofuran-2-yl)methyl ((S)-2-((6-cyanopyridin-3-yl)oxy)-3-(octadecyloxy)propyl) hydrogen phosphate] has an EC50 [1] of 45 nM, a CC50 at 3 days [2] of 1610 nM and a CC50 at 3 days [3] of over 49900 nM. For the same compound, the EC50 [4] was 3 nM and the EC50 [5] was 3 nM.

CCCCCCCCCCCCCCCC[C@H](COP(=O)(O)OC[C@@]1(C#N)O[C@@H](c2ccc3c(N)ncnn23)[C@H](O)[C@@H]1O)OCc1cc(F)cc(C#N)c1 [Compound 78, ((2R,3S,4R,5S)-5-(4-aminopyrrolo[2,1-f][1,2,4]triazin-7-yl)-2-cyano-3,4-dihydroxytetrahydrofuran-2-yl)methyl ((R)-2-((3-cyano-5-fluorobenzyl)oxy)octadecyl) hydrogen phosphate] showed an EC50 [1] of 439 nM, a CC50 at 3 days [2] of 1200 nM and a CC50 at 3 days [3] of 34600 nM. The EC50 [4] was 66 nM and the EC50 [5] was 38 nM.

Work on CCCCCCCCCCCCCCCCCCC[C@H](COP(=O)(O)OC[C@@]1(C#N)O[C@@H](c2ccc3c(N)ncnn23)[C@H](O)[C@@H]1O)Oc1cc(OC)c(C#N)c(OC)c1 [Compound 39, ((2R,3S,4R,5S)-5-(4-aminopyrrolo[2,1-f][1,2,4]triazin-7-yl)-2-cyano-3,4-dihydroxytetrahydrofuran-2-yl)methyl ((R)-2-(4-cyano-3,5-dimethoxyphenoxy)henicosyl) hydrogen phosphate] yielded an EC50 [1] of 327 nM, a CC50 at 3 days [2] of 6460 nM and a CC50 at 3 days [3] of over 41400 nM. It also gave an EC50 [4] of 35 nM and an EC50 [5] of 34 nM.

In the case of CCCCCCCCCCCCCCC[C@H](COP(=O)(O)OC[C@@]1(C#N)O[C@@H](c2ccc3c(N)ncnn23)[C@H](O)[C@@H]1O)OCc1cc(F)cc(C#N)c1 [Compound 80, ((2R,3S,4R,5S)-5-(4-aminopyrrolo[2,1-f][1,2,4]triazin-7-yl)-2-cyano-3,4-dihydroxytetrahydrofuran-2-yl)methyl ((R)-2-((3-cyano-5-fluorobenzyl)oxy)heptadecyl) hydrogen phosphate], the EC50 [1] is reported as 1050 nM, the CC50 at 3 days [2] is reported as 2170 nM and the CC50 at 3 days [3] is reported as over 50000 nM. For the same compound, the EC50 [4] was 111 nM and the EC50 [5] was 88 nM.

Work on CCCCCCCCCCCCCCCCCCOC[C@H](COP(=O)(O)OC[C@@]1(C#N)O[C@@H](c2ccc3c(N)ncnn23)[C@H](O)[C@@H]1O)Oc1cccc(C#N)n1 [Compound 21, ((2R,3S,4R,5S)-5-(4-aminopyrrolo[2,1-f][1,2,4]triazin-7-yl)-2-cyano-3,4-dihydroxytetrahydrofuran-2-yl)methyl ((R)-2-((6-cyanopyridin-2-yl)oxy)-3-(octadecyloxy)propyl) hydrogen phosphate] yielded an EC50 [1] of 222 nM, a CC50 at 3 days [2] of 3350 nM and a CC50 at 3 days [3] of 39700 nM. For the same compound, the EC50 [4] was 50 nM and the EC50 [5] was 60 nM.
